Literature values in patent publication US20020187120A1, “Method for treating gout and reducing serum uric acid” (GelTex Pharmaceutical, Inc., priority 2001, published 2002).

Conditions: administered orally

## COc1cc2c(c(OC)c1OC)-c1ccc(OC)c(=O)cc1[C@@H](NC(C)=O)CC2 [colchicine]
  people who cannot tolerate the drug because of side effects: 80%
